Laboratory results: PubChem BioAssay (NCI)
Several values for one entry are separate records, joined by “and”; a condition that tells them apart may be missing. Equal values may be shown once.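 Five concentrations, 48 hours, 96-well plates. GI50 = concentration required for 50% inhibition of growth. TGI: total growth inhibition.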

Tests used:
Assay in all cases: NCI tumour cell line growth inhibition, 48 h
DMS 114 small cell lung = test system: DMS 114 small cell lung
K-562 leukemia = test system: K-562 leukemia
SNB-78 CNS = test system: SNB-78 CNS
SK-MEL-28 melanoma = test system: SK-MEL-28 melanoma
IGROV1 ovarian = test system: IGROV1 ovarian
SK-OV-3 ovarian = test system: SK-OV-3 ovarian
SW-620 colon = test system: SW-620 colon
SR leukemia = test system: SR leukemia
SK-MEL-5 melanoma = test system: SK-MEL-5 melanoma
RXF 393 renal = test system: RXF 393 renal

COc1cc2c(cc1OC)[C@@H]([C@H](O)c1ccccc1)NCC2
TGI (DMS 114 small cell lung): > 100 µM | TGI (K-562 leukemia): > 100 µM | TGI (SNB-78 CNS): > 100 µM | TGI (SK-MEL-28 melanoma): > 100 µM | TGI (IGROV1 ovarian): > 100 µM | TGI (SK-OV-3 ovarian): > 100 µM | TGI (SW-620 colon): > 100 µM | TGI (SR leukemia): > 100 µM | TGI (SK-MEL-5 melanoma): > 100 µM | TGI (RXF 393 renal): > 100 µM

C[C@@](O)(/C=C/[C@H]1CC=CC(=O)O1)[C@@H](C[C@@H](O)\C=C/C=C\C=C\CO)OP(=O)(O)O
TGI (DMS 114 small cell lung): 82.6 µM | GI50 (K-562 leukemia): 1.39 µM | TGI (K-562 leukemia): 363 µM and 84.6 µM | GI50 (SNB-78 CNS): 11.3 µM | TGI (SNB-78 CNS): 60.8 µM and > 58.8 µM | GI50 (SK-MEL-28 melanoma): 8.69 µM | TGI (SK-MEL-28 melanoma): 38.8 µM and 25.3 µM | TGI (IGROV1 ovarian): 15.4 µM | TGI (SK-OV-3 ovarian): 31.4 µM | TGI (SW-620 colon): 70.9 µM | TGI (SR leukemia): 41.6 µM | GI50 (SK-MEL-5 melanoma): 7.89 µM | TGI (SK-MEL-5 melanoma): 21.8 µM and 27 µM | TGI (RXF 393 renal): 23.8 µM and 13 µM

CCN(CC)CCC(=O)/C=C/c1ccc(C)cc1
TGI (DMS 114 small cell lung): 24.4 µM | TGI (K-562 leukemia): > 100 µM | TGI (SNB-78 CNS): 79.3 µM | TGI (SK-MEL-28 melanoma): 28.1 µM | TGI (IGROV1 ovarian): 30 µM | TGI (SK-OV-3 ovarian): 35.1 µM | TGI (SW-620 colon): 14.9 µM | TGI (SR leukemia): 33.3 µM | TGI (SK-MEL-5 melanoma): 30.2 µM | TGI (RXF 393 renal): 29.2 µM

Cc1cc(NS(=O)(=O)c2ccc(NC(=O)COC(=O)c3cccc4c(=O)c5ccccc5[nH]c34)cc2)no1
TGI (DMS 114 small cell lung): > 100 µM | TGI (K-562 leukemia): > 100 µM | TGI (SNB-78 CNS): > 100 µM | TGI (SK-MEL-28 melanoma): > 100 µM | TGI (IGROV1 ovarian): > 100 µM | TGI (SK-OV-3 ovarian): > 100 µM | TGI (SW-620 colon): > 100 µM | TGI (SR leukemia): > 100 µM | TGI (SK-MEL-5 melanoma): > 100 µM | TGI (RXF 393 renal): > 100 µM

CC12CC(Sc3ccccc3N1)c1ccccc1O2 (stereo not given)
TGI (DMS 114 small cell lung): 29 µM | TGI (K-562 leukemia): 40.2 µM | TGI (SNB-78 CNS): 42.6 µM | TGI (SK-MEL-28 melanoma): 30.4 µM | TGI (IGROV1 ovarian): 48.6 µM | TGI (SK-OV-3 ovarian): 58.4 µM | TGI (SW-620 colon): 31.8 µM | TGI (SR leukemia): 58 µM | TGI (SK-MEL-5 melanoma): 28 µM | TGI (RXF 393 renal): 30.2 µM

C/C=C1\CCC2c3[nH]c4ccccc4c3CCN2C1 (stereo not given)
TGI (DMS 114 small cell lung): > 100 µM | TGI (K-562 leukemia): > 100 µM | TGI (SNB-78 CNS): > 100 µM | TGI (SK-MEL-28 melanoma): > 100 µM | TGI (IGROV1 ovarian): > 100 µM | TGI (SK-OV-3 ovarian): > 100 µM | TGI (SW-620 colon): > 100 µM | TGI (SR leukemia): > 100 µM | TGI (SK-MEL-5 melanoma): > 100 µM | TGI (RXF 393 renal): > 100 µM

O=C1N[C@H]2[C@H](O)[C@H](O)[C@@H](O)[C@H](O)[C@@H]2c2cc3c(c(O)c21)OCO3
GI50 (DMS 114 small cell lung): 0.241 µM and 0.604 µM | GI50 (K-562 leukemia): 0.216 µM and 0.214 µM | GI50 (SNB-78 CNS): 0.248 µM and 2.04 µM | GI50 (SK-MEL-28 melanoma): 0.308 µM and 0.382 µM | GI50 (IGROV1 ovarian): 0.349 µM and 0.757 µM | GI50 (SK-OV-3 ovarian): 0.3 µM and 0.33 µM | GI50 (SW-620 colon): 0.239 µM and 0.25 µM | GI50 (SR leukemia): 0.0248 µM | TGI (SR leukemia): 0.511 µM and 3.31 µM | GI50 (SK-MEL-5 melanoma): 0.127 µM | GI50 (RXF 393 renal): 0.148 µM and 0.423 µM
